The record followed here is PMC10424242, “Macrocyclic Peptidomimetic Plasmepsin X Inhibitors with Potent In Vitro and In Vivo Antimalarial Activity” (Journal of Medicinal Chemistry, 2023).

For one series, the target named is cathepsin D (CatD) (Homo sapiens, UniProt P07339). Put plainly: FRET-based CatD inhibition assay (selectivity counter screen). It is filed as biochemical. The protocol: (§1) A fluorescence resonance energy transfer (FRET)-based assay was performed to assess the ability of the compounds to inhibit PMIV, CatD, and BACE1. Serial dilutions of test compounds were dispensed in a white 96-well plate. […] The mixture was incubated for 20 min at 37 °C. […] IC50 values were calculated with GraphPad Prism 8.0 using the nonlinear regression, variable slope (four parameters). Compounds were tested in triplicate.
A general note: The purpose of a counterscreen is to sort out artefacts and off-target activity.

Another series deals with PMIV (Plasmodium falciparum, UniProt Q8IM16). Put plainly: FRET-based PMIV inhibition assay. The series is classed as biochemical, P. falciparum. How it is done: as §1
Series [1] addresses recombinant P. falciparum PMX (Plasmodium falciparum, UniProt Q8IAS0). Put plainly: Recombinant P. falciparum PMX inhibition assay (fluorogenic substrate Rh2N). The series is classed as biochemical. The protocol:
The fluorescence of this peptide is quenched by the spatial proximity of the DABCYL/EDANS groups in the uncleaved peptide and is increased upon cleavage at the internal F–I bond. […] Control wells contained no inhibitor, and the plate was blanked against the substrate only in DB. […] All experiments were performed in duplicate.

The next series concerns the target BACE1 (Homo sapiens, UniProt P56817). Put plainly: FRET-based BACE1 inhibition assay (selectivity counter screen). The series is classed as biochemical. How it is done: as §1
Series [2] is described as follows: Plasma protein binding (rapid equilibrium dialysis). It is filed as in vitro ADME. Conditions: pH 7.4, mouse plasma, 2 h at 37 °C. The protocol:
Plasma protein binding was performed with rapid equilibrium dialysis (RED) device inserts containing a dialysis membrane with a molecular weight cut-off of 8000 Daltons. Inserts were placed in the single-use RED plate without prior preparation.
The test compound at a concentration of 5 μM was added to mouse plasma and dialyzed against phosphate-buffered saline (PBS, pH 7.4) for 2 h at 37 °C. Propranolol hydrochloride was used as a positive control (high PPB), and fluconazole was used as negative control (low PPB). After dialysis, the drug concentration in the buffer and plasma compartments was quantified by liquid chromatography and tandem mass spectrometry (LC-MS/MS) analysis.
(In general: In equilibrium dialysis free small molecules cross a membrane that holds back macromolecules.)

Series [3] is described as follows: Liver microsomal metabolic stability. It is filed as in vitro ADME, mouse. Conditions: pooled liver microsomes, pH 7.4, mouse liver microsomes, 5 μM; for microsomal CLint at 1 h, 5 μM: read-out: microsomal stability CL(int). The protocol:
Microsomal stability assays are performed as described elsewhere.[41] Test compounds and pooled mouse liver microsomes are incubated in potassium phosphate buffer in the presence of the cofactor NADPH at 37 °C. Reaction mixtures (700 μL) contain a final concentration of 5 μM test compound, 0.05% DMSO, 0.5 mg/mL microsomes, and ∼0.7–0.9 mM NADPH in 100 mM potassium phosphate buffer at pH 7.4. Reactions are terminated by the addition of 100 μL of the reaction mixture to 900 μL of acetonitrile after 0, 5, 15, 30, 45, and 60 min of incubation. Samples were centrifuged, and the resultant supernatant was analyzed by ultra-performance liquid chromatography–tandem mass spectrometry (UPLC-MS/MS). The amount of remaining compound is calculated and compared to the initial amount of test compound (zero time point). Verapamil is used as a positive control, and samples prepared without cofactor NADPH are used as a negative control (0 and 60 min). The in vitro metabolic stability parameters (half-life value (t1/2) and intrinsic clearance value (Clint)) are calculated from the slope of the Ln of concentration remaining vs the time curve.
A general note: Liver microsomes are vesicles of endoplasmic reticulum, rich in cytochrome P450 enzymes.

Series [4] has as its system P. falciparum Pf3D7^0087/N9. Put plainly: In vivo efficacy against P. falciparum in the TAD PfalcHuMouse model. The note with it: three times a day for 4 days at 40 mg/kg, oral; 40 mg/kg. How it is done: Therapeutic efficacy studies were performed at TAD using a standardized humanized mouse model of P. falciparum malaria[31] with modifications.[34] […] The volume of injections was 1 and 0.7 mL for i.p. or i.v. inoculation, respectively.
The inoculum was obtained from peripheral blood of CO2-euthanized donor mice harboring 5–10% parasitemia.
Before drug administration, each infected mouse was randomly assigned to its corresponding treatment. […] The treatment was administered by oral gavage with 20G straight reusable feeding needles (Fine Science Tools GmbH) at 10 mL·kgbodyweight^–1 unless otherwise stated.
Parasitemia was measured in serial 2 μL of samples of tail blood by flow cytometry and expressed as the % of parasitized erythrocytes with respect to the total erythrocytes in circulation.
The clearance of parasitized erythrocytes from the peripheral blood of mice was assessed by measuring the parasite reduction ratio (PRR) calculated as the ratio between parasitemia at Day n + 2 divided by parasitemia at Day n for each individual of the study.
The parasiticidal effect of drugs in vivo was assessed by measuring the day of recrudescence (DoR) as described.[34] In short, DoR was defined as the day at which parasitemia after drug treatment reached the % parasitemia at treatment inception. Drug-treated mice were deemed cured if there was no detectable parasitemia 60 days after treatment.

Setting [5] is: recombinant PMX, read-out: PMX, nM (IC50).
The mark [6] stands for this setting: Table 3, read-out: PMIV, nM (as listed in Table 3).
[7] abbreviates: Table 3, read-out: PMX, nM (as listed in Table 3).

“Also recorded” adds a separate entry of the source. Read-outs that look alike come from different tables or passages of the source.

recombinant P. falciparum PMX, sequence (Q8IAS0 222-573): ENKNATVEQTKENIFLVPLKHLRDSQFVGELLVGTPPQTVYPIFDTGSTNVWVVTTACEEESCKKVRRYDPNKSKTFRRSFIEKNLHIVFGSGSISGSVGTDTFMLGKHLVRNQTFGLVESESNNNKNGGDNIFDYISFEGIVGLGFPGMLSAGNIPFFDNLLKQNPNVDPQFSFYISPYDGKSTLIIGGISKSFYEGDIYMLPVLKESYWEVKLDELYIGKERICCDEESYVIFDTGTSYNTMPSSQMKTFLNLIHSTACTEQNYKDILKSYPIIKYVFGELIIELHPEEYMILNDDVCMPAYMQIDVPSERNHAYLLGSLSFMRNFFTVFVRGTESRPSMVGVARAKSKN
BACE1, sequence (P56817 46-501): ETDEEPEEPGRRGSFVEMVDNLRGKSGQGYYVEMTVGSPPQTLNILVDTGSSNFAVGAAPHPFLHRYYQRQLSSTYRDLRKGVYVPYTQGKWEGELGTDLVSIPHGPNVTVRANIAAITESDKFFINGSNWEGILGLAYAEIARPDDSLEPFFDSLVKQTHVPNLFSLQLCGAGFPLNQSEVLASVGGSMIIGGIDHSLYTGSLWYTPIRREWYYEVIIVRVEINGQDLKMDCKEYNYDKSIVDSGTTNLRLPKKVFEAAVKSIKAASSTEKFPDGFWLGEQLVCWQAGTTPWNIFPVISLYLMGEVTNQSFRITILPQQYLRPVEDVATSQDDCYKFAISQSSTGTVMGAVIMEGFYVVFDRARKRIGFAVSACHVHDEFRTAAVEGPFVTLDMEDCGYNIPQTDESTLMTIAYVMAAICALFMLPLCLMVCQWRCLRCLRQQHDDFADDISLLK
PMIV, sequence (Q8IM16 122-449): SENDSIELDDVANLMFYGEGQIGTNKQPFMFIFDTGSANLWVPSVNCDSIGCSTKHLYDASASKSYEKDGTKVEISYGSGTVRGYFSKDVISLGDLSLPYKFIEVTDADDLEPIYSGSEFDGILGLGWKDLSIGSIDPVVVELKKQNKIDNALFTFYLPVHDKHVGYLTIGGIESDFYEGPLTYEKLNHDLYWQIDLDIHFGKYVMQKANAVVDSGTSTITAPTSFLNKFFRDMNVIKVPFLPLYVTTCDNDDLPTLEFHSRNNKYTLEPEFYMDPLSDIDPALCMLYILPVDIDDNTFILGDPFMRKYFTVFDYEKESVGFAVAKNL
cathepsin D (CatD), sequence (P07339 65-412): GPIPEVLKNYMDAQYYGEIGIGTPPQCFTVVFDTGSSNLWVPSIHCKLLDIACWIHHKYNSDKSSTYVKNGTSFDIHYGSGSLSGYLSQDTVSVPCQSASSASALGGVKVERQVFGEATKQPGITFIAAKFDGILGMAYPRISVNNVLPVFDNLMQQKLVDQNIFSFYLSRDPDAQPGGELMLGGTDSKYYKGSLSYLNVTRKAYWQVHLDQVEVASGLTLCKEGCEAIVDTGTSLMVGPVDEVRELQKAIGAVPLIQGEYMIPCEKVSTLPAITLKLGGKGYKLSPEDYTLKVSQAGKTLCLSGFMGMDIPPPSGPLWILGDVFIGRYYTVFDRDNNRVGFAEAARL

As for `COc1cccc(C(C)(C)NC[C@@H](O)[C@@H]2Cc3cccc(c3)OCCCCN(CC(C)(C)C)C(=O)c3cccc(c3)C(=O)N2)c1` [7e], the IC50 was determined as 630 nM at cathepsin D (CatD); 61 ± 4 nM at PMIV; 40 nM at PMIV (read-out: PMIV, nM (IC50)); 8.6 ± 2.4 nM in series [1]; 2.5 ± 0.2 nM in series [1] (setting [5]); 1900 ± 100 nM against BACE1. For the same compound, the fraction unbound (commonly free concentration divided by total concentration) at 2 h, 5 µM in series [2] is 0.0035. The half-life – broadly, the time needed for the level to fall by half in the phase considered – at 1 h, 5 μM in series [3] amounted to 13.7 min. The microsomal CLint at 1 h, 5 μM in series [3] was found to be 101 µL/min/mg.
For the compound `COc1cccc(C(C)(C)NC[C@@H](O)[C@@H]2Cc3cccc(c3)OCCCCN(C)C(=O)c3cccc(c3)C(=O)N2)c1` [7c, (S)-4-((R)-1-Hydroxy-2-((2-(3-methoxyphenyl)propan-2-yl)amino)ethyl)-12-methyl-7-oxa-3,12-diaza-1,6(1,3)-dibenzenacyclotridecaphane-2,13-dione], the IC50 is 320 ± 20 nM against cathepsin D (CatD); 510 ± 30 nM against PMIV; 170 ± 20 nM at PMIV (read-out: PMIV, nM (IC50)); 11.2 ± 0.7 nM in series [1]; 5.3 ± 3 nM in series [1] (setting [5]); 1030 ± 50 nM at BACE1. The unbound share (fraction unbound) at 2 h, 5 µM in series [2] was 0.0351. Moreover, in series [3], the half-life at 1 h, 5 μM was 16.9 min. Also, in series [3], the microsomal CLint at 1 h, 5 μM came out at 81.9 µL/min/mg.
As to `CCCN1CCOc2cccc(c2)C[C@@H]([C@H](O)CNC(C)(C)c2cccc(OC)c2)NC(=O)c2cccc(c2)C1=O` [7h], the IC50 is 600 nM against cathepsin D (CatD); 200 nM on PMIV (setting [6]); 200 nM at PMIV (read-out: PMIV, nM (IC50)); 6.8 ± 0.59 nM in series [1] (setting [7]); 6.8 ± 0.59 nM in series [1] (setting [5]); 1850 ± 90 nM at BACE1. For the same compound, the fraction unbound at 2 h, 5 µM in series [2] was 0.0384. Besides, the half-life at 1 h, 5 μM in series [3] turned out to be 13.9 min. Besides, the microsomal CLint at 1 h, 5 μM in series [3] amounted to 99.8 µL/min/mg.
As to `COc1cccc(C(C)(C)NC[C@@H](O)[C@@H]2Cc3cccc(c3)OCCCCNC(=O)c3cccc(c3)C(=O)N2)c1` [7b, (S)-4-((R)-1-Hydroxy-2-((2-(3-methoxyphenyl)propan-2-yl)amino)ethyl)-7-oxa-3,12-diaza-1,6(1,3)-dibenzenacyclotridecaphane-2,13-dione], the IC50 on cathepsin D (CatD) came to 650 ± 30 nM; against PMIV it was 60 ± 3 nM; on PMIV (read-out: PMIV, nM (IC50)), 510 ± 30 nM; in series [1], 4.1 ± 0.3 nM; in series [1] (setting [5]), 11.2 ± 0.7 nM; against BACE1, 910 ± 40 nM. The same compound gave a fraction unbound at 2 h, 5 µM in series [2] of 0.0274. The compound also displayed a half-life at 1 h, 5 μM in series [3] of 31.3 min. Further, the microsomal CLint at 1 h, 5 μM in series [3] stood at 44.3 µL/min/mg.
Take `CCCN(CCC)C(=O)c1cccc(C(=O)N[C@@H](Cc2ccccc2)[C@H](O)CNC(C)(C)c2cccc(OC)c2)c1` [6a]: in series [1] (setting [5]), the IC50 worked out at 6.2 ± 0.3 nM. Further, the fraction unbound at 2 h, 5 µM in series [2] was 0.009. In addition, in series [3], the half-life at 1 h, 5 μM was determined as 6.4 min and the microsomal CLint at 1 h, 5 μM was found to be 216 µL/min/mg.
Turning to `COc1cccc(C(C)(C)NC[C@@H](O)[C@@H]2Cc3cccc(c3)OCCCCN(CCN(C)C)C(=O)c3cccc(c3)C(=O)N2)c1` [7f, (S)-12-(2-(Dimethylamino)ethyl)-4-((R)-1-hydroxy-2-((2-(3-methoxyphenyl)propan-2-yl)amino)ethyl)-7-oxa-3,12-diaza-1,6(1,3)-dibenzenacyclotridecaphane-2,13-dione], the IC50 was 6800 ± 340 nM against cathepsin D (CatD); 40 nM at PMIV; 1730 ± 90 nM at PMIV (read-out: PMIV, nM (IC50)); 2.5 ± 0.2 nM in series [1]; 16.7 ± 1.5 nM in series [1] (setting [5]); 52400 ± 1600 nM against BACE1. Besides, the “reduction of PMX inhibitory potency” value in series [1] (compared to analogue 7a) is given as 4 fold. The compound also showed a fraction unbound at 2 h, 5 µM in series [2] of 0.0695. Also, in series [3], the half-life at 5 μM is more than 120 min. The “effect on parasite burden” value in series [4] is listed as “only a weak effect on parasite burden; also recorded: measurable reduction in parasitemia”.
As to `CCCN1CCOCCc2cccc(c2)C[C@@H]([C@H](O)CNC(C)(C)c2cccc(OC)c2)NC(=O)c2cccc(c2)C1=O` [7i, (S)-4-((R)-1-Hydroxy-2-((2-(3-methoxyphenyl)propan-2-yl)amino)ethyl)-12-propyl-9-oxa-3,12-diaza-1,6(1,3)-dibenzenacyclotridecaphane-2,13-dione], the IC50 on cathepsin D (CatD) was 1650 ± 80 nM; at PMIV (setting [6]), 81 ± 4 nM; at PMIV (read-out: PMIV, nM (IC50)) it was 81 ± 4 nM; in series [1] (setting [7]) it was 4.6 ± 0.07 nM; in series [1] (setting [5]) it was 4.6 ± 0.07 nM; against BACE1, 22700 ± 1100 nM. Moreover, the fraction unbound at 2 h, 5 µM in series [2] is 0.0287. In series [3], this compound returned a half-life at 1 h, 5 μM of 8.39 min. In addition, the microsomal CLint at 1 h, 5 μM in series [3] amounted to 165 µL/min/mg.
As to `COc1cccc(C(C)(C)NC[C@@H](O)[C@@H]2Cc3cccc(c3)OCCCCN(CCC(F)(F)F)C(=O)c3cccc(c3)C(=O)N2)c1` [7d, (S)-4-((R)-1-Hydroxy-2-((2-(3-methoxyphenyl)propan-2-yl)amino)ethyl)-12-(3,3,3-trifluoropropyl)-7-oxa-3,12-diaza-1,6(1,3)-dibenzenacyclotridecaphane-2,13-dione], the IC50 on cathepsin D (CatD) turned out to be 230 ± 20 nM; at PMIV it was 170 ± 20 nM; at PMIV (read-out: PMIV, nM (IC50)), 61 ± 4 nM; in series [1], 5.3 ± 3 nM; in series [1] (setting [5]) it was 8.6 ± 2.4 nM; against BACE1, 2100 ± 100 nM. The fraction unbound at 2 h, 5 µM in series [2] was 0.0125. Moreover, the half-life at 1 h, 5 μM in series [3] was 20.4 min. For the same compound, the microsomal CLint at 1 h, 5 μM in series [3] was determined as 67.9 µL/min/mg.
With `CCCN1CCCCCOc2cccc(c2)C[C@@H]([C@H](O)CNC(C)(C)c2cccc(OC)c2)NC(=O)c2cccc(c2)C1=O` [7g, (S)-4-((R)-1-Hydroxy-2-((2-(3-methoxyphenyl)propan-2-yl)amino)ethyl)-13-propyl-7-oxa-3,13-diaza-1,6(1,3)-dibenzenacyclotetradecaphane-2,14-dione], the IC50 is 1200 nM on cathepsin D (CatD); 190 nM at PMIV (setting [6]); 190 nM on PMIV (read-out: PMIV, nM (IC50)); 6.9 ± 0.49 nM in series [1] (setting [7]); 6.9 ± 0.49 nM in series [1] (setting [5]); 6000 ± 300 nM on BACE1. The compound further showed a fraction unbound at 2 h, 5 µM in series [2] of 0.0079. In series [3], this compound came in with a half-life at 1 h, 5 μM of 7.64 min. Further, the microsomal CLint at 1 h, 5 μM in series [3] came to 181 µL/min/mg.
